From patent US20260049089A1, “KRAS INHIBITOR COMPOUND” (SHANGHAI APEIRON THERAPEUTICS COMPANY LIMITED, priority 2022, published 2026)
“And” between values parts separate entries of the source, which are not always exact repeats. Identical values can stand only once. Like-named read-outs stand apart in the source and are kept apart here.

Tests used:
Assay type in all cases: cell-based
AGS cells = assay: 3D cell proliferation assay (CellTiter-Glo 3D), AGS; conditions: 5 days, read-out: 3D Proliferation Inhibition AGS_IC50
Method: (§1) Using a nanoliter liquid handling system (LABCYTE, P-0200), the diluted test compounds were added to a 384-well low-adsorption cell culture plate. Cells were seeded into the wells, and the plate was placed in an incubator at 37° C. with 5% CO2. After co-incubating the compounds and cells for 5 days, CellTiter-Glo® 3D reagent was added. Luminescence values were measured using an EnVision Multilabel Plate Reader (luminescence is proportional to the ATP content in the system, and ATP content directly reflects the number of viable cells). Finally, the IC50 values (half-maximal inhibitory concentrations) of the compounds were determined using non-linear fitting equations in XLFit software with the following parameters: […]
(§2) X: Logarithm of compound concentration • Y: Inhibition rate (%)
(§3) [formula] • Negative control: DMSO • Positive control: Medium only

AsPC-1 cells = assay: 3D cell proliferation assay (CellTiter-Glo 3D), AsPC-1; conditions: 5 days, read-out: 3D Proliferation Inhibition AsPC-1_IC50
Method: as §1, §2, §3

pERK in AGS cells = assay: ERK phosphorylation cell assay, AGS; conditions: 3 hours compound incubation, read-out: pERK AGS_IC50
Method: (§4) • Day 1: AGS cells were seeded into a 384-well cell culture plate and incubated overnight at 37° C. with 5% CO2 in a cell culture incubator. • Day 2: Compounds were added to the plate using an Echo550 liquid handler, followed by incubation at 37° C. with 5% CO2 in a cell culture incubator for 3 hours. Subsequently, the cells were fixed with paraformaldehyde, permeabilized with methanol, and blocked with blocking buffer. A primary antibody mixture (rabbit anti-pERK, mouse anti-GAPDH) was added, and the plate was incubated overnight at 4° C. • Day 3: The primary antibodies were removed, and a secondary antibody mixture (goat anti-rabbit 800CW, goat anti-mouse 680RD) was added. The plate was incubated at room temperature in the dark. After three washes with PBST, the plate was inverted and centrifuged for 1 minute. Fluorescence signal values were read using an Odyssey CLx imaging system.
(§5) [formula] • Negative control: DMSO • Positive control: 10 μM Reference • Fitted using XLFit 5.0 with the following parameters:
(§6) [formula] • X: Log of compound concentration • Y: Mean relative expression levels of p-ERK across replicates

pERK in AsPC-1 cells = assay: ERK phosphorylation cell assay, AsPC-1; conditions: read-out: pERK AsPC-1_IC50
Method: [Worded in the source for another cell line; this cell line is reported under the same test.] as §4, §5, §6

[1] = Homo sapiens, ASPC1, AsPC-1 cells

Row | Molecule | IC50 (AGS cells; Homo sapiens, AGS, 120 h) [nM] | IC50 (AsPC-1 cells) | IC50 (pERK in AGS cells) | IC50 (pERK in AsPC-1 cells; AsPC-1 cells) | IC50 (pERK in AGS cells; Homo sapiens, AGS, 3 h) [nM] | IC50 (pERK in AsPC-1 cells; [1]) [nM] | IC50 (AsPC-1 cells; Homo sapiens, ASPC1, 120 h) [nM] | IC50 (AGS cells)
1 | O=C1CCCCCc2c(F)ccc3cc(O)cc(c23)-c2c(cc3c(N4CC5CCC(C4)N5)nc(OC[C@@]45CCCN4C[C@H](F)C5)nc3c2F)N1 [Example 9, 12-((1R,5S)-3,8-diazabicyclo[3.2.1]octan-3-yl)-3,16-difluoro-14-(((2R,7aS)-2-fluorotetrahydro-1H-pyrazin-7a(5H)-yl)methoxy)-18-hydroxy-5,6,7,8-tetrahydro-4H-naphtho[1′,8′:4,5,6][1]azacyclododecino[2,3-g]quinazolin-9(10H)-one] | 51 | 613 nM | 18 nM | 118 nM | – | – | – | –
2 | C[C@@]1(O)CCCN(c2nc(OCC3(N4CCOCC4)CC3)nc3c(F)c4c(cc23)NCCCCCc2c(F)ccc3cc(O)cc-4c23)C1 (single isomer, unassigned) [Example 33A] | 2310 | 1490 nM | – | – | > 10000 | > 10000 | – | –
3 | C[C@@]1(O)CCCN(c2nc(OCC34CCCN3CC(=CF)C4)nc3c(F)c4c(cc23)NCCCCCc2c(F)ccc3cc(O)cc-4c23)C1 (stereo partly shown) [Example 30] | 177 | – | – | – | 55 | 171 | 534 | –
4 | C[C@@]1(O)CCCN(c2nc(OCC34CCCN3CC(F)(F)C4)nc3c(F)c4c(cc23)NCCCCCc2c(F)ccc3cc(O)cc-4c23)C1 (stereo partly shown) [Example 36] | 1880 | – | – | – | 1390 | 3910 | 2480 | –
5 | C[C@@]1(O)CCCN(c2nc(OC[C@@]34CCCN3C[C@H](F)C4)nc3c(F)c4c(cc23)NCCCCCc2c(F)ccc3cc(O)cc-4c23)C1 [Example 16, 3,15-difluoro-13-(((2R,7aS)-2-fluorotetrahydro-1H-pyrrolidin-7a(5H)-yl)methoxy)-11-((R)-3-hydroxy-3-methylpiperidin-1-yl)-4,5,6,7,8,9-hexahydronaphthol[1′,8′:4,5,6][1]azacycloundecane [2,3-g]quinazolin-17-ol] | 83 | – | – | – | 31 | 102 | 288 | –
6 | CN1CCC[C@H]1COc1nc(N2CCC[C@@](C)(O)C2)c2cc3c(c(F)c2n1)-c1cc(O)cc2ccc(F)c(c12)CCCCCN3 (single isomer, unassigned) [Example 28A] | – | 1760 nM | 194 nM | 776 nM | – | – | – | 430 nM
7 | Oc1cc2c3c(c(F)ccc3c1)CCCCCCNc1cc3c(N4CC5CCC(C4)N5)nc(OC[C@@]45CCCN4C[C@H](F)C5)nc3c(F)c1-2 [Example 8] | 255 | – | – | – | 73 | 278 | 682 | –
8 | 3,15-difluoro-13-((2R,7aS)-2-fluorotetrahydro-1H-pyrazin-7a(5H)-yl)methoxy)-11-((R)-3-hydroxy-3-methylpiperidin-1-yl)-4,5,8,9-tetrahydro-7H-naphtho[1′,8′:7,8,9][1]oxa[4]azacycloundeca[5,6-g]quinazoline-17-ol [Example 43A] | – | 60 nM and 55 nM | 4.6 nM | 15 nM | – | – | – | 22 nM and 24 nM
9 | C=C1CN2C[C@H](F)C[C@]2(COc2nc(N3CCC[C@@](C)(O)C3)c3cc4c(c(F)c3n2)-c2cc(O)cc3ccc(F)c(c23)CCOCCN4C)C1 [Example 49] | 83 | – | – | – | 20 | 17 | 112 | –
10 | C=C1CN2CCCC2(COc2nc(N3CCC[C@@](C)(O)C3)c3cc4c(c(F)c3n2)-c2cc(O)cc3ccc(F)c(c23)CCCCCN4C)C1 (single isomer, unassigned) [Example 22A] | – | 166 nM | 26 nM | 85 nM | – | – | – | 90 nM
11 | [2H]C([2H])([2H])N1CCOCCc2c(F)ccc3cc(O)cc(c23)-c2c1cc1c(N3CCC[C@@](C)(O)C3)nc(OC[C@@]34CCCN3C[C@H](F)C4)nc1c2F [Example 46, 3,15-difluoro-13-(((2R,7aS)-2-fluorotetrahydro-1H-pyrazin-7a(5H)-yl)methoxy)-11-((R)-3-hydroxy-3-methylpiperidin-1-yl)-9-(trideuteromethyl)-4,5,8,9-tetrahydro-7H-naphtho[1′,8′:7,8,9][1]oxa[4]azacycloundeca[5,6-g]quinazoline-17-ol] | 12 | – | – | – | 5.8 | 11 | 30 | –
12 | CN(C)CC1(COc2nc(N3CCC[C@@](C)(O)C3)c3cc4c(c(F)c3n2)-c2cc(O)cc3ccc(F)c(c23)CCCCCN4)CC1 [Example 27] | 314 | – | – | – | 99 | 338 | 1000 | –
13 | C=C1CN2CCC[C@@]2(COc2nc(N3CCC[C@@](C)(O)C3)c3cc4c(c(F)c3n2)-c2cc(O)cc3ccc(F)c(c23)CCOCCN4)C1 (single isomer, unassigned) [Example 42D] | – | 39 nM | 2.2 nM | 12 nM | – | – | – | 5.9 nM
14 | C[C@@]1(O)CCCN(c2nc(OCC34CCCN3CC3(CC3)C4)nc3c(F)c4c(cc23)NCCCCCc2c(F)ccc3cc(O)cc-4c23)C1 (stereo partly shown) [Example 23] | 346 | – | 157 nM | 754 nM | 135 | 728 | 2100 | –
15 | Oc1cc2c3c(c(F)ccc3c1)CCCCCNc1cc3c(N4CC5CCC(C4)N5)nc(OC[C@@]45CCCN4C[C@H](F)C5)nc3c(F)c1-2 [Example 5, 11-((1R,5S)-3,8-Diazabicyclo[3.2.1]octane-3-yl)-3,15-difluoro-13-(((2R,7aS)-2-fluorotetrahydro-1H-pyrrolin-7a(5H)-yl)methoxy)-4,5,6,7,8,9-hexahydro-naphtho[1′,8′:4,5,6][1]azacycloundecino[2,3-g]quinazolin-17-ol] | 128 | – | – | – | 12 | 41 | 196 | –
16 | C=C1CN2CCCC2(COc2nc(N3CCC[C@@](C)(O)C3)c3cc4c(c(F)c3n2)-c2cc(O)cc3ccc(F)c(c23)CCCCCN4C)C1 (single isomer, unassigned) [Example 22B] | – | 1790 nM | 430 nM | 898 nM | – | – | – | 553 nM
17 | CN(C)C1CN(c2nc(N3CCC[C@@](C)(O)C3)c3cc4c(c(F)c3n2)-c2cc(O)cc3ccc(F)c(c23)CCCCCN4)C1 [Example 39, (R)-13-(3-(dimethylamino)azetidinyl)-3,15-difluoro-11-(3-hydroxy-3-methylpiperidin-1-yl)-4,5,6,7,8,9-hexahydro-naphtho[1′,8′:4,5,6][1]azacycloundecino[2,3-g]quinazoline-17-ol] | 6390 | – | – | – | > 10000 | > 10000 | > 10000 | –
18 | C[C@@]1(O)CCCN(c2nc(OC[C@@]34CCCN3C[C@H](F)C4)nc3c(F)c4c(cc23)NCCOCCc2c(F)ccc3cccc-4c23)C1 (single isomer, unassigned) [Example 52B] | > 10000 | – | > 10000 nM | > 10000 nM | – | – | > 10000 | –
19 | C[C@@]1(O)CCCN(c2nc(OC[C@@]34CCCN3C[C@H](F)C4)nc3c(F)c4c(cc23)NCCOCCc2c(F)ccc3cc(O)cc-4c23)C1 [Example 43B] | 148 | – | – | – | 61 | 108 | 434 | –
20 | C[C@@]1(O)CCCN(c2nc(OCC34CCCN3CCC4)nc3c(F)c4c(cc23)NCCCCCc2c(F)ccc3cc(O)cc-4c23)C1 (single isomer, unassigned) [Example 21A] | 226 | – | 93 nM and 99 nM | 938 nM and 721 nM | – | – | 2630 | –
